Results: US20220313698A1, “MODULATORS OF CYSTIC FIBROSIS TRANSMEMBRANE CONDUCTANCE REGULATOR” (Vertex Pharmaceuticals Incorporated, priority 2019, published 2022)
Read-outs that look alike come from different tables or passages of the source.

Experiments:
[1] = snar bond, 15-membered ring
[2] = biological target: T1, CFTR-mediated chloride transport (Homo sapiens, UniProt P13569); experiment: Corrector Assay B - membrane potential dye assay (enteroid cells); conditions: for Corrector Assay B % activity: % of chloride transport of triple combination control (3 μM Compound A + 3 μM tezacaftor + 300 nM ivacaftor); for EC50: read-out: Corrector Assay B EC50, human intestinal enteroid cells, 18-24 h incubation, acute 10 μM forskolin + 300 nM ivacaftor;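 on all read-outs here: methyl oxonol membrane potential fluorescence followed over 15 min after switching to chloride-free buffer with forskolin, 100 µM IBMX and ivacaftor, in presence of CaCC blockers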
Method: Base medium (ADF+++) consisted of Advanced DMEM/Ham's F12, 2 mM Glutamax, 10 mM HEPES, 1 μg/ml penicillin/streptomycin.
Intestinal enteroid maintenance medium (IEMM) consisted of ADF+++, 1×B27 supplement, 1×N2 supplement, 1.25 mM N-acetyl cysteine, 10 mM Nicotinamide, 50 ng/mL hEGF, 10 nM Gastrin, 1 μg/mL hR-spondin-1, 100 ng/mL hNoggin, TGF-b type 1 inhibitor A-83-01, 100 μg/mL Primocin, 10 μM P38 MAPK inhibitor SB202190.
Bath 1 Buffer consisted of 1 mM MgCl2, 160 mM NaCl, 4.5 mM KCl, 10 mM HEPES, 10 mM Glucose, 2 mM CaCl2).
Chloride Free Buffer consisted of 1 mM Magnesium Gluconate, 2 mM Calcium Gluconate, 4.5 mM Potassium Gluconate, 160 mM Sodium Gluconate, 10 mM HEPES, 10 mM Glucose.
Bath 1 Dye Solution consisted of Bath 1 Buffer, 0.04% Pluronic F127, 20 μM Methyl Oxonol, 30 μM CaCCinh-A01, 30 μM Chicago Sky Blue.
Chloride Free Dye Solution consisted of Chloride Free Buffer, 0.04% Pluronic F127, 20 μM Methyl Oxonol, 30 μM CaCCinh-A01, 30 μM Chicago Sky Blue.
Chloride Free Dye Stimulation Solution consisted of Chloride Free Dye Solution, 10 μM forskolin, 100 μM IBMX, and 300 nM Ivacaftor.
Cells were recovered in cell recovery solution, collected by centrifugation at 650 rpm for 5 min at 4° C., resuspended in TryPLE and incubated for 5 min at 37° C. Cells were then collected by centrifugation at 650 rpm for 5 min at 4° C. and resuspended in IEMM containing 10 μM ROCK inhibitor (RI). The cell suspension was passed through a 40 μm cell strainer and resuspended at 1×10^6 cells/mL in IEMM containing 10 μM RI. Cells were seeded at 5000 cells/well into multi-well plates and incubated for overnight at 37° C., 95% humidity and 5% CO2 prior to assay.
Briefly, cells were washed 5 times in Bath 1 Buffer. Bath 1 Dye Solution was added and the cells were incubated for 25 min at room temperature. Following dye incubation, cells were washed 3 times in Chloride Free Dye Solution. Chloride transport was initiated by addition of Chloride Free Dye Stimulation Solution and the fluorescence signal was read for 15 min. The CFTR-mediated chloride transport for each condition was determined from the AUC of the fluorescence response to acute forskolin and 300 nM N-[2,4-bis(1,1-dimethylethyl)-5-hydroxyphenyl]-1,4-dihydro-4-oxoquinoline-3-carboxamide stimulation. Chloride transport was then expressed as a percentage of the chloride transport following treatment with 3 μM Compound A, 3 μM (R)-1-(2,2-difluorobenzo[d][1,3]dioxol-5-yl)-N-(1-(2,3-dihydroxypropyl)-6-fluoro-2-(1-hydroxy-2-methylpropan-2-yl)-1H-indol-5-yl)cyclopropanecarboxamide and 300 nM acute N-[2,4-bis(1,1-dimethylethyl)-5-hydroxyphenyl]-1,4-dihydro-4-oxoquinoline-3-carboxamide triple combination control (% Activity).

[3] = biological target: T1, CFTR-mediated chloride transport; experiment: Corrector Assay A - membrane potential dye assay (enteroid cells); conditions: for Corrector Assay A % activity: % of chloride transport of triple combination control (1 μM (14S)-dispiro macrocycle + 3 μM tezacaftor + 300 nM ivacaftor); for EC50: read-out: Corrector Assay A EC50, human intestinal enteroid cells, 18-24 h incubation, acute 10 μM forskolin + 300 nM ivacaftor

EC50 [2] | SMILES | Corrector Assay B % activity [2] | Corrector Assay A % activity [3] | EC50 [3] | also measured
 | CC(C)(C)c1ccc2c(n1)N1CC(CCCOc3cccc(c3)S(=O)(=O)NC2=O)CC1(C)C (stereo not drawn) |  |  |  | ring closure, yield after HPLC ([1]; from CC1(C)CC(CCCOc2cccc(S(=O)(=O)NC(=O)c3ccc(C(C)(C)C)nc3F)c2)CN1, K2CO3, NMP, 27.5 mM, 150.0 °C, 16.0 h): 41%
 | CC(C)(C)c1ccc2c(n1)N1CC(CCN(c3ccccc3)C(=O)c3cccc(c3)S(=O)(=O)NC2=O)CC1(C)C (stereo not drawn) |  |  |  | ring closure, yield after HPLC ([1]; from CC1(C)CC(CCN(C(=O)c2cccc(S(=O)(=O)NC(=O)c3ccc(C(C)(C)C)nc3Cl)c2)c2ccccc2)CN1, K2CO3, then CsF/3A MS, NMP, 24.6 mM, 180.0 °C, 88.0 h): 29%
 | CC(C)(C)c1ccc2c(n1)N1C[C@@H](CCC(C3=CCN(C(=O)OCc4ccccc4)CC3)Nc3cccc(n3)S(=O)(=O)NC2=O)CC1(C)C (stereo partly drawn) |  |  |  | ring closure, yield after HPLC ([1]; from CC1(C)C[C@H](CCC(Nc2cccc(S(=O)(=O)NC(=O)c3ccc(C(C)(C)C)nc3F)n2)C2=CCN(C(=O)OCc3ccccc3)CC2)CN1, K2CO3/3A MS, NMP, 29.7 mM, 155.0 °C, 18.0 h, 2 steps): 89%
 | CC(C)(C)c1ccc2c(n1)N1C[C@@H](CCC(C3CCN(C(=O)OCc4ccccc4)CC3)Nc3cccc(n3)S(=O)(=O)NC2=O)CC1(C)C (stereo partly drawn) |  |  |  | ring closure, yield after HPLC ([1]; from CC1(C)C[C@H](CCC(Nc2cccc(S(=O)(=O)NC(=O)c3ccc(C(C)(C)C)nc3F)n2)C2CCN(C(=O)OCc3ccccc3)CC2)CN1, K2CO3, NMP, 42.0 mM, 140.0 °C, 16.0 h): 58%
 | CC(C)(C)c1ccc2c(n1)N1C[C@@H](CCC(c3ccc(C(=O)O)cc3)Nc3cccc(n3)S(=O)(=O)NC2=O)CC1(C)C (stereo partly drawn) |  |  |  | ring closure, yield after HPLC ([1]; from CC1(C)C[C@H](CCC(Nc2cccc(S(=O)(=O)NC(=O)c3ccc(C(C)(C)C)nc3Cl)n2)c2ccc(C(=O)O)cc2)CN1, K2CO3, NMP, 26.5 mM, 165.0 °C, 48.0 h): 24%
 | CC1(C)CC2CN1c1nc(-n3ccc(OCCC4(C(F)(F)F)CC4)n3)ccc1C(=O)NS(=O)(=O)c1cccc(n1)NCCC2c1ccccc1 (stereo not drawn) |  |  |  | ring closure, yield after HPLC ([1]; from CC1(C)CC(C(CCNc2cccc(S(=O)(=O)NC(=O)c3ccc(-n4ccc(OCCC5(C(F)(F)F)CC5)n4)nc3Cl)n2)c2ccccc2)CN1, K2CO3/3A MS, DMSO, 38.4 mM, 155.0 °C, 16.0 h, 2 steps): 50%
 | CC1(C)C[C@@H]2CCC(c3ccc(C(=O)O)cc3)Nc3cccc(n3)S(=O)(=O)NC(=O)c3ccc(-n4ccc(OCCC5(C(F)(F)F)CC5)n4)nc3N1C2 (stereo partly drawn) |  |  |  | ring closure, yield after HPLC ([1]; from CC1(C)C[C@H](CCC(Nc2cccc(S(=O)(=O)NC(=O)c3ccc(-n4ccc(OCCC5(C(F)(F)F)CC5)n4)nc3Cl)n2)c2ccc(C(=O)O)cc2)CN1, K2CO3, NMP, 19.4 mM, 150.0 °C, 18.0 h): 40%
 | CC1(C)C[C@@H]2CCCNc3cccc(n3)S(=O)(=O)NC(=O)c3cc(Cc4ccccc4)c(F)nc3N1C2 |  |  |  | ring closure, yield after HPLC ([1]; from CC1(C)C[C@H](CCCNc2cccc(S(=O)(=O)NC(=O)c3cc(Cc4ccccc4)c(F)nc3F)n2)CN1, K2CO3, NMP, 71.8 mM, 160.0 °C, 21.5 h, 2 steps): 33%
< 1 µM | CC(C)(C)c1ccc2c(n1)N1C[C@@H](CCC(c3cncnc3)Nc3cccc(n3)S(=O)(=O)NC2=O)CC1(C)C (single isomer, unassigned) [Compound 297] | +++ (+++ is >60%) | +++ (+++ is >60%) | < 1 µM | 
< 1 µM | CC1(C)C[C@@H]2CCC(c3ccccn3)Nc3cccc(n3)S(=O)(=O)NC(=O)c3ccc(-n4ccc(OCCC5(C(F)(F)F)CC5)n4)nc3N1C2 (single isomer, unassigned) [Compound 361] | +++ (+++ is >60%) | +++ (+++ is >60%) | < 1 µM | 
 | CC1(C)C[C@@H]2CCC(c3ccccn3)Nc3cccc(n3)S(=O)(=O)NC(=O)c3ccc(-n4ccc(OCCC5(C(F)(F)F)CC5)n4)nc3N1C2 (single isomer, unassigned) [Compound 362] | +++ (+++ is >60%) | +++ (+++ is >60%) | < 1 µM | 
< 1 µM | CC1(C)C[C@@H]2CCC(c3ccccc3)Nc3cccc(n3)S(=O)(=O)NC(=O)c3ccc(-n4ccc(OCCC5C6(CC6)C56CC6)n4)nc3N1C2 (single isomer, unassigned) [Compound 363] | +++ (+++ is >60%) | +++ (+++ is >60%) | < 1 µM | 
 | CC1(C)C[C@@H]2CCC(c3ccccc3)Nc3cccc(n3)S(=O)(=O)NC(=O)c3ccc(-n4ccc(OCCC5C6(CC6)C56CC6)n4)nc3N1C2 (single isomer, unassigned) [Compound 364] | +++ (+++ is >60%) | +++ (+++ is >60%) | < 1 µM | 
< 1 µM | CCCC1(C)CC2CCCNc3cccc(n3)S(=O)(=O)NC(=O)c3ccc(-n4ccc(OCCC5(C(F)(F)F)CC5)n4)nc3N1C2 (single isomer, unassigned) [Compound 367, 12-methyl-12-propyl-8-(3-{2-[1-(trifluoromethyl)cyclopropyl]ethoxy}-1H-pyrazol-1-yl)-2λ^6-thia-3,9,11,18,23-pentaazatetracyclo[17.3.1.111,14.05,10]tetracosa-1(22),5,7,9,19(23),20-hexaene-2,2,4-trione] | ++ (++ is 30-60%) | +++ (+++ is >60%) | < 1 µM | 
 | CC1(C)CC2CCC(c3ccccc3)Nc3cccc(n3)S(=O)(=O)NC(=O)c3ccc(-n4ccc(OCCC5(C(F)(F)F)CC5)n4)nc3N1C2 (single isomer, unassigned) [Compound 384, 12,12-Dimethyl-17-phenyl-8-(3-{2-[1-(trifluoromethyl)cyclopropyl]ethoxy}-1H-pyrazol-1-yl)-2λ^6-thia-3,9,11,18,23-pentaazatetracyclo[17.3.1.111,14.05,10]tetracosa-1(22),5,7,9,19(23),20-hexaene-2,2,4-trione] | ++ (++ is 30-60%) | + (+ is <30%) | < 1 µM | 
 | CC1(C)CC2CCC(c3ccccc3)Nc3cccc(n3)S(=O)(=O)NC(=O)c3ccc(-n4ccc(OCCC5(C(F)(F)F)CC5)n4)nc3N1C2 (single isomer, unassigned) [Compound 387, 12,12-Dimethyl-17-phenyl-8-(3-{2-[1-(trifluoromethyl)cyclopropyl]ethoxy}-1H-pyrazol-1-yl)-2λ^6-thia-3,9,11,18,23-pentaazatetracyclo[17.3.1.111,14.05,10]tetracosa-1(22),5,7,9,19(23),20-hexaene-2,2,4-trione] | +++ (+++ is >60%) | +++ (+++ is >60%) | < 1 µM | 
 | CC1(C)CC2CC(c3ccccc3)CNc3cccc(n3)S(=O)(=O)NC(=O)c3ccc(-n4ccc(OCCC5(C(F)(F)F)CC5)n4)nc3N1C2 (single isomer, unassigned) [Compound 391, 12,12-dimethyl-16-phenyl-8-(3-{2-[1-(trifluoromethyl)cyclopropyl]ethoxy}-1H-pyrazol-1-yl)-2λ^6-thia-3,9,11,18,23-pentaazatetracyclo[17.3.1.111,14.05,10]tetracosa-1(22),5,7,9,19(23),20-hexaene-2,2,4-trione] | +++ (+++ is >60%) | +++ (+++ is >60%) | < 1 µM | 
 | CC1(C)CC2CN1c1nc(-n3ccc(OCCC4(C(F)(F)F)CC4)n3)ccc1C(=O)NS(=O)(=O)c1cccc(n1)NCCC2c1ccccc1 (single isomer, unassigned) [Compound 393, 12,12-dimethyl-15-phenyl-8-(3-{2-[1-(trifluoromethyl)cyclopropyl]ethoxy}-1H-pyrazol-1-yl)-2λ^6-thia-3,9,11,18,23-pentaazatetracyclo[17.3.1.111,14.05,10]tetracosa-1(22),5,7,9,19(23),20-hexaene-2,2,4-trione] | +++ (+++ is >60%) | +++ (+++ is >60%) | < 1 µM | 

SMILES | EC50 [2] | Corrector Assay B % activity [2] | Corrector Assay A % activity [3] | EC50 [3] | also measured
CC1(C)CC2CCC(c3ccccc3)Nc3cccc(n3)S(=O)(=O)NC(=O)c3ccc(-n4ccc(OCCC5(C(F)(F)F)CC5)n4)nc3N1C2 (single isomer, unassigned) [Compound 383, 12,12-Dimethyl-17-phenyl-8-(3-{2-[1-(trifluoromethyl)cyclopropyl]ethoxy}-1H-pyrazol-1-yl)-2λ^6-thia-3,9,11,18,23-pentaazatetracyclo[17.3.1.111,14.05,10]tetracosa-1(22),5,7,9,19(23),20-hexaene-2,2,4-trione] | < 1 µM | +++ (+++ is >60%) | ++ (++ is 30-60%) | < 1 µM | 
CC1(C)CC2CN1c1nc(-n3ccc(OCCC4(C(F)(F)F)CC4)n3)ccc1C(=O)NS(=O)(=O)c1cccc(n1)NCCC2c1ccccc1 (single isomer, unassigned) [Compound 385, 12,12-dimethyl-15-phenyl-8-(3-{2-[1-(trifluoromethyl)cyclopropyl]ethoxy}-1H-pyrazol-1-yl)-2λ^6-thia-3,9,11,18,23-pentaazatetracyclo[17.3.1.111,14.05,10]tetracosa-1(22),5,7,9,19(23),20-hexaene-2,2,4-trione] | < 1 µM | ++ (++ is 30-60%) | ++ (++ is 30-60%) | < 1 µM | 
CC1(C)CC2CC(c3ccccc3)CNc3cccc(n3)S(=O)(=O)NC(=O)c3ccc(-n4ccc(OCCC5(C(F)(F)F)CC5)n4)nc3N1C2 (single isomer, unassigned) [Compound 389, 12,12-dimethyl-16-phenyl-8-(3-{2-[1-(trifluoromethyl)cyclopropyl]ethoxy}-1H-pyrazol-1-yl)-2λ^6-thia-3,9,11,18,23-pentaazatetracyclo[17.3.1.111,14.05,10]tetracosa-1(22),5,7,9,19(23),20-hexaene-2,2,4-trione] | < 1 µM | +++ (+++ is >60%) | +++ (+++ is >60%) | < 1 µM | 
